Assay results reported in patent publication US20060128773A1, “Wood preservatives and waterproofing compositions and processes” (priority 2004, published 2006).

Legend:
[1] = Leaching study of treated wood test blocks into water (Example 2); format: physicochemical
Experimental: Wood test blocks prepared in accordance with Example 1, were subjected to a leaching study.
In this leaching study the following procedure was observed. • 1. The wood test block was placed in 500 ml plastic containers with screw caps. • 2. Water was added to the container to over flowing and the container was sealed. • 3. The containers were stored at room temperature. • 4.

[2] = Leaching study of treated wood test blocks into water (Example 4); format: physicochemical
Experimental: In this example test blocks were prepared in accordance with the procedure of Example 1 and subjected a leaching study using the following procedure. • 1. The wood test blocks were placed in 500 ml plastic containers with screw caps. • 2. Water was added to the containers to over flowing and the container was sealed. • 3. The containers were stored at room temperature.
4. After two days the containers were opened and the leachate was analyzed for active quaternary compound (QAC) using a Hach DR/2400 Spectrophotometer.

EN[…] = details: ATCC # 13048; lowest concentration which inhibits growth in all replicates
ESCHERICHIA = details: ATCC # 11229; lowest concentration which inhibits growth in all replicates
LISTERIA MONOCYTOGENES = details: ATCC # 35152; lowest concentration which inhibits growth in all replicates
PSEUDOMONAS AERUGINOSA [3] = details: ATCC # 15442; lowest concentration which inhibits growth in all replicates
SERRATIA MARCESANS = details: ATCC # 13880; lowest concentration which inhibits growth in all replicates
ST[…] = details: ATCC # 6538; lowest concentration which inhibits growth in all replicates
[4] = tested on: METHICILLIAN-RESISTANT STAPHYLOCOCCUS AUREUS; details: ATCC # 33593; lowest concentration which inhibits growth in all replicates
AS[…] = details: ATCC # 16424; lowest concentration which inhibits growth in all replicates
CANDIDA ALBICANS = details: ATCC # 10231; lowest concentration which inhibits growth in all replicates
PSEUDOMONAS AERUGINOSA [5] = details: ATCC # 15442; ten-minute contact time
SALMONELLA CHOLERAESUIS = details: ATCC # 10708; ten-minute contact time
STAPHYLOCOCCUS AUREUS = details: ATCC # 6538; ten-minute contact time

alkyl dimethyl benzyl ammonium chloride [ADBAC]
leaching of quaternary ammonium compound relative to the ADBAS compound ([1]; Example 2, ratio of averages): 3.25 times | AVERAGE active quaternary compound in leachate, FINAL DATE May 8, 2004 ([1]; average of three blocks, water, room temperature, after two days): 45.24 PPM QAC | leaching relative to the ADBAS compound ([2]; Example 4, ratio of averages): 8.1 times | AVERAGE active quaternary compound in leachate, FINAL DATE Sep. 5, 2004 ([2]; average of three blocks, water, room temperature, start Sep. 1, 2004): 480.0 PPM QAC

alkyl dimethyl benzyl ammonium saccharinate [ADBAS]
Minimum Inhibitory Concentration (MIC) CONCENTRATION (EN[…]): 10 PPM | Minimum Inhibitory Concentration (MIC) CONCENTRATION (ESCHERICHIA): 10 PPM | Minimum Inhibitory Concentration (MIC) CONCENTRATION (LISTERIA MONOCYTOGENES): 1 PPM | Minimum Inhibitory Concentration (MIC) CONCENTRATION (PSEUDOMONAS AERUGINOSA [3]): 100 PPM | Minimum Inhibitory Concentration (MIC) CONCENTRATION (SERRATIA MARCESANS): 10 PPM | Minimum Inhibitory Concentration (MIC) CONCENTRATION (ST[…]): 1 PPM | Minimum Inhibitory Concentration (MIC) CONCENTRATION [4]: 0.5 PPM | Minimum Inhibitory Concentration (MIC) CONCENTRATION (AS[…]): 10 PPM | Minimum Inhibitory Concentration (MIC) CONCENTRATION (CANDIDA ALBICANS): 100 PPM | AOAC USE-DILUTION VALUES CONCENTRATION (PSEUDOMONAS AERUGINOSA [5]): 700 PPM | AOAC USE-DILUTION VALUES CONCENTRATION (SALMONELLA CHOLERAESUIS): 600 PPM | AOAC USE-DILUTION VALUES CONCENTRATION (STAPHYLOCOCCUS AUREUS): 600 PPM
